Test results published in ChEMBL document CHEMBL5236587, “Discovery of oxazoline enhancers of cellular progranulin release” (Bioorg Med Chem Lett, 2023).

Tests used:
[1] = Induction of progranulin secretion in mouse BV-2 cells; type: functional, cell-based
[2] = biological target: Voltage-gated inwardly rectifying potassium channel KCNH2 (Homo sapiens, UniProt Q12809); experiment: Inhibition of human ERG; type: toxicity
[3] = Bioavailability in mouse at 10 mg/kg, po or 1 mg/kg, iv; type: ADME, organism-based; settings: in vivo
[4] = Volume of distribution at steady state in mouse at 10 mg/kg, po or 1 mg/kg, iv; type: ADME, organism-based; settings: in vivo
[5] = Half life in mouse at 1 mg/kg, iv; type: ADME, organism-based; settings: in vivo
[6] = Metabolic stability in human hepatocytes assessed as intrinsic clearance; type: ADME, cell-based, Hepatocyte
[7] = Apparent permeability across apical to basolateral side in MDCK-MDR1 cells; type: ADME, cell-based, Canis lupus familiaris; settings: dog
[8] = Metabolic stability in mouse hepatocytes assessed as half life measured upto 120 mins; type: ADME, cell-based, Hepatocyte
[9] = Efflux ratio of apparent permeability in MDCK-MDR1 cells; type: ADME, cell-based, Canis lupus familiaris; settings: dog
[10] = Half life in mouse at 10 mg/kg, po; type: ADME, organism-based; settings: in vivo
[11] = Metabolic stability in mouse hepatocytes assessed as intrinsic clearance; type: ADME, cell-based, Hepatocyte
[12] = Protein binding in mouse brain assessed as unbound fraction; type: ADME, tissue-based
[13] = Clearance in mouse at 10 mg/kg, po or 1 mg/kg, iv; type: ADME, organism-based; settings: in vivo
[14] = Metabolic stability in human hepatocytes assessed as half life measured upto 120 mins; type: ADME, cell-based, Hepatocyte
[15] = Protein binding in human assessed as unbound fraction; type: ADME
[16] = Protein binding in mouse assessed as unbound fraction; type: ADME

Voltage-gated inwardly rectifying potassium channel KCNH2, sequence (Q12809 whole entry): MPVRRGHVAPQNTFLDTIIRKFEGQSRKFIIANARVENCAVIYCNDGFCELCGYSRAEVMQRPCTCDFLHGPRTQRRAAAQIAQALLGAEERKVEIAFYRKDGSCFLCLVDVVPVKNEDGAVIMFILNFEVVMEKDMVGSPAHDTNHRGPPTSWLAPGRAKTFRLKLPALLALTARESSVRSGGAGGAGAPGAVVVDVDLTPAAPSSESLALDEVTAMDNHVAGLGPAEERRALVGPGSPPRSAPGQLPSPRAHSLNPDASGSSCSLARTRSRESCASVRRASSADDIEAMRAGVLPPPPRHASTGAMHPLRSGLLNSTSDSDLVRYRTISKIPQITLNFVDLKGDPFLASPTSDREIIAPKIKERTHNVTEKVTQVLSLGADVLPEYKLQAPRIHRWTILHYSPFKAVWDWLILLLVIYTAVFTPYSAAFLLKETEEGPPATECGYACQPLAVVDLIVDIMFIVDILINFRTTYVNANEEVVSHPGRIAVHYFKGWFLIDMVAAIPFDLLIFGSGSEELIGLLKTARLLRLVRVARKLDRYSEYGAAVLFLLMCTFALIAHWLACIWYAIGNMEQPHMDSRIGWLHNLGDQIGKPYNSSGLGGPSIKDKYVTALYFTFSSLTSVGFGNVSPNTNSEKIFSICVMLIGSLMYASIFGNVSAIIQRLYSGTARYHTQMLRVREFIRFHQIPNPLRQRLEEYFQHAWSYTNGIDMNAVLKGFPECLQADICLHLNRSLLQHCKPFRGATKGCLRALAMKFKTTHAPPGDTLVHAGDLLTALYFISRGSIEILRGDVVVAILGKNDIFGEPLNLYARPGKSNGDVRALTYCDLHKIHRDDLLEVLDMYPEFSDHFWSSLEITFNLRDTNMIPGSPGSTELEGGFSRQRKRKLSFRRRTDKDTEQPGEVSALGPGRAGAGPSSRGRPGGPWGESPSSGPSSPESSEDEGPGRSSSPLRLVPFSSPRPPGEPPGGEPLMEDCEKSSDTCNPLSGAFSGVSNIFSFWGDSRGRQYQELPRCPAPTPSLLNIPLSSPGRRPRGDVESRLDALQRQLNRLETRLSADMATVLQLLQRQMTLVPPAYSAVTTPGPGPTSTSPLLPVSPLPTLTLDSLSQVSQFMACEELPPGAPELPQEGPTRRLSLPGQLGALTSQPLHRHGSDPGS

SMILES	EC50 [1]	IC50 [2]	other results
Fc1ccc([C@H]2c3ccccc3CCN2C2=NC[C@@H]3NCC[C@@H]3O2)cc1	0.455 µM	–	–
CN1CC[C@@]2(CN=C(N3CCc4ccccc4[C@@H]3c3ccc(F)cc3)O2)C1	0.176 µM	1.7 µM	–
OCCCN1CC[C@@]2(CN=C(N3CCc4ccccc4[C@@H]3c3ccc(F)cc3)O2)C1	0.181 µM	4.8 µM	–
Fc1ccc([C@H]2c3ccccc3CCN2C2=NC[C@@H]3CNCC[C@H]3O2)cc1	0.035 µM	3.1 µM	–
Fc1ccc([C@H]2c3ccccc3CCN2C2=NC[C@H](C3(F)CNC3)O2)cc1	0.192 µM	11 µM	–
N[C@H]1CC[C@]2(COC(N3CCc4ccccc4[C@@H]3c3ccc(F)cc3)=N2)C1	0.16 µM	–	–
NC[C@H]1C[C@]2(CN=C(N3CCc4ccccc4[C@@H]3c3ccc(F)cc3)O2)C1	0.206 µM	–	–
Fc1ccc([C@H]2c3ccccc3CCN2C2=NC[C@@]3(CCNC3)O2)cc1	0.038 µM	4.8 µM	bioavailability [3]: 74%; Vdss [4]: 57.2 L/kg; half-life [5]: 15.6 h; CLH [6]: < 14.7 µL/min/mg; Papp A→B [7]: 3 ×10⁻⁶ cm/s; half-life [8]: > 2 h; efflux ratio [9]: 3.09; half-life [10]: 11.9 h; CLH [11]: < 68.2 µL/min/mg; fraction unbound [12]: 0.041; CL [13]: 49.8 mL/min/kg; half-life [14]: > 2 h
Fc1ccc([C@H]2c3ccccc3CCN2C2=NC[C@H]3NCC[C@H]3O2)cc1	0.423 µM	–	–
CN(C)[C@H]1C[C@]2(CN=C(N3CCc4ccccc4[C@@H]3c3ccc(F)cc3)O2)C1	3.58 µM	–	–
CN1CC[C@]2(CN=C(N3CCc4ccccc4[C@@H]3c3ccc(F)cc3)O2)C1	0.069 µM	0.51 µM	–
N[C@@H]1CC[C@]2(CN=C(N3CCc4ccccc4[C@@H]3c3ccc(F)cc3)O2)C1	0.236 µM	–	–
N[C@H]1C[C@@]2(COC(N3CCc4ccccc4[C@@H]3c3ccc(F)cc3)=N2)C1	0.639 µM	–	–
OCCN1CC[C@@H]2OC(N3CCc4ccccc4[C@@H]3c3ccc(F)cc3)=NC[C@@H]2C1	0.037 µM	–	–
N[C@@H]1CC[C@@]2(CN=C(N3CCc4ccccc4[C@@H]3c3ccc(F)cc3)O2)C1	0.119 µM	8.8 µM	–
Fc1ccc([C@H]2c3ccccc3CCN2C2=NC[C@H]([C@H]3CCNC3)O2)cc1	0.085 µM	2.3 µM	–
Fc1ccc([C@H]2c3ccccc3CCN2C2=NC[C@]3(CCNC3)O2)cc1	0.021 µM	–	–
OCCN1CC[C@H]2OC(N3CCc4ccccc4[C@@H]3c3ccc(F)cc3)=NC[C@H]2C1	0.23 µM	–	–
Fc1ccc([C@H]2c3ccccc3CCN2C2=NC[C@H]([C@@H]3CCNC3)O2)cc1	0.208 µM	6.7 µM	–
Fc1ccc([C@H]2c3ccccc3CCN2C2=N[C@@]3(CCCNC3)CO2)cc1	0.038 µM	–	–
Fc1ccc([C@H]2c3ccccc3CCN2C2=NC[C@H]3CNCC[C@@H]3O2)cc1	1.55 µM	–	–
N[C@H]1CC[C@@]2(COC(N3CCc4ccccc4[C@@H]3c3ccc(F)cc3)=N2)C1	0.204 µM	–	–
Fc1ccc([C@H]2c3ccccc3CCN2C2=NC[C@H](C3CN4CCC3(F)CC4)O2)cc1 (some centres not stated)	> 10 µM	–	–
Fc1ccc([C@H]2c3ccccc3CCN2C2=NC[C@H](C3CN4CCC3CC4)O2)cc1 (some centres not stated)	0.387 µM	0.68 µM	–
Fc1ccc([C@H]2c3ccccc3CCN2C2=NC[C@@]3(CCCNC3)O2)cc1	0.502 µM	–	–
Fc1ccc([C@H]2c3ccccc3CCN2C2=NC[C@H]3CNC[C@H]3O2)cc1	0.111 µM	5.1 µM	–
Fc1ccc([C@H]2c3ccccc3CCN2C2=NCC3(CCNCC3)O2)cc1	0.059 µM	–	–

SMILES	EC50 [1]	IC50 [2]	other results
Fc1ccc([C@H]2c3ccccc3CCN2C2=NC[C@@H]3CNC[C@@H]3O2)cc1	0.95 µM	–	–
N[C@H]1C[C@@]2(CN=C(N3CCc4ccccc4[C@@H]3c3ccc(F)cc3)O2)C1	0.522 µM	–	–
N[C@H]1CC[C@@]2(CN=C(N3CCc4ccccc4[C@@H]3c3ccc(F)cc3)O2)C1	0.127 µM	–	–
CN(C)[C@H]1CC[C@@]2(CN=C(N3CCc4ccccc4[C@@H]3c3ccc(F)cc3)O2)C1	0.237 µM	3.6 µM	–
CN(C)[C@H]1CC[C@]2(CN=C(N3CCc4ccccc4[C@@H]3c3ccc(F)cc3)O2)C1	0.137 µM	7.8 µM	–
Fc1ccc([C@H]2c3ccccc3CCN2C2=NC[C@@H](C3CNC3)O2)cc1	0.097 µM	6.2 µM	–
CN1CCCC2(COC(N3CCc4ccccc4[C@@H]3c3ccc(F)cc3)=N2)C1 (some centres not stated)	0.796 µM	–	–
Fc1ccc([C@H]2c3ccccc3CCN2C2=NC[C@H]3CNCC[C@H]3O2)cc1	0.335 µM	–	–
NC[C@H]1C[C@@]2(CN=C(N3CCc4ccccc4[C@@H]3c3ccc(F)cc3)O2)C1	0.993 µM	–	–
Fc1ccc([C@H]2c3ccccc3CCN2C2=NC[C@@H](C3CN4CCC3(F)CC4)O2)cc1 (some centres not stated)	0.382 µM	–	–
Fc1ccc([C@H]2c3ccccc3CCN2C2=N[C@@H](C3(F)CNC3)CO2)cc1	0.119 µM	10 µM	–
Fc1ccc([C@H]2c3ccccc3CCN2C2=N[C@H]3CNC[C@H]3O2)cc1	0.517 µM	–	–
Fc1ccc([C@H]2c3ccccc3CCN2C2=NC[C@@H]3NCC[C@H]3O2)cc1	0.659 µM	–	–
Fc1ccc([C@H]2c3ccccc3CCN2C2=NC[C@]3(CCCNC3)O2)cc1	0.064 µM	–	–
Fc1ccc([C@H]2c3ccccc3CCN2C2=N[C@H](C3CN4CCC3CC4)CO2)cc1 (some centres not stated)	0.126 µM	–	–
Fc1ccc([C@H]2c3ccccc3CCN2C2=N[C@@H]3CNC[C@@H]3O2)cc1	0.674 µM	–	–
CN1CCC2(CC1)COC(N1CCc3ccccc3[C@@H]1c1ccc(F)cc1)=N2	7.03 µM	–	–
Fc1ccc([C@H]2c3ccccc3CCN2C2=N[C@]3(CCCNC3)CO2)cc1	0.085 µM	–	–
Fc1ccc([C@H]2c3ccccc3CCN2C2=NC[C@@H]([C@H]3CCNC3)O2)cc1	0.244 µM	3.9 µM	–
N[C@H]1CC[C@]2(CN=C(N3CCc4ccccc4[C@@H]3c3ccc(F)cc3)O2)C1	0.11 µM	–	–
Fc1ccc([C@H]2c3ccccc3CCN2C2=NC[C@H](C3CNC3)O2)cc1	0.109 µM	2.2 µM	–
Fc1ccc([C@H]2c3ccccc3CCN2C2=N[C@H]3CNC[C@H]3CO2)cc1	0.275 µM	3.3 µM	–
Fc1ccc([C@H]2c3ccccc3CCN2C2=NC[C@@H]([C@@H]3CCNC3)O2)cc1	0.055 µM	5.4 µM	–
Fc1ccc([C@H]2c3ccccc3CCN2C2=NC3(CCNCC3)CO2)cc1	0.157 µM	–	–
Fc1ccc([C@H]2c3ccccc3CCN2C2=NC[C@@H]3CNCC[C@@H]3O2)cc1	0.057 µM	21 µM	Papp A→B [7]: 1.4 ×10⁻⁶ cm/s; fraction unbound [15]: 0.375; efflux ratio [9]: 9.04; fraction unbound [12]: 0.009; fraction unbound [16]: 0.253
Fc1ccc([C@H]2c3ccccc3CCN2C2=N[C@@H](C3CN4CCC3CC4)CO2)cc1 (some centres not stated)	0.231 µM	–	–
CN(C)[C@H]1C[C@@]2(CN=C(N3CCc4ccccc4[C@@H]3c3ccc(F)cc3)O2)C1	0.209 µM	7 µM	–
